Test [1] deals with T1, recombinant human Meningioma Expressed Antigen 5 (MGEA5), also referred to as O-GlcNAcase (OGA) (Homo sapiens, UniProt O60502).
T1 construct: Full length OGA enzyme was purchased at OriGene (cat # TP322411); purchased OriGene TP322411
T1 sequence (O60502 1-916): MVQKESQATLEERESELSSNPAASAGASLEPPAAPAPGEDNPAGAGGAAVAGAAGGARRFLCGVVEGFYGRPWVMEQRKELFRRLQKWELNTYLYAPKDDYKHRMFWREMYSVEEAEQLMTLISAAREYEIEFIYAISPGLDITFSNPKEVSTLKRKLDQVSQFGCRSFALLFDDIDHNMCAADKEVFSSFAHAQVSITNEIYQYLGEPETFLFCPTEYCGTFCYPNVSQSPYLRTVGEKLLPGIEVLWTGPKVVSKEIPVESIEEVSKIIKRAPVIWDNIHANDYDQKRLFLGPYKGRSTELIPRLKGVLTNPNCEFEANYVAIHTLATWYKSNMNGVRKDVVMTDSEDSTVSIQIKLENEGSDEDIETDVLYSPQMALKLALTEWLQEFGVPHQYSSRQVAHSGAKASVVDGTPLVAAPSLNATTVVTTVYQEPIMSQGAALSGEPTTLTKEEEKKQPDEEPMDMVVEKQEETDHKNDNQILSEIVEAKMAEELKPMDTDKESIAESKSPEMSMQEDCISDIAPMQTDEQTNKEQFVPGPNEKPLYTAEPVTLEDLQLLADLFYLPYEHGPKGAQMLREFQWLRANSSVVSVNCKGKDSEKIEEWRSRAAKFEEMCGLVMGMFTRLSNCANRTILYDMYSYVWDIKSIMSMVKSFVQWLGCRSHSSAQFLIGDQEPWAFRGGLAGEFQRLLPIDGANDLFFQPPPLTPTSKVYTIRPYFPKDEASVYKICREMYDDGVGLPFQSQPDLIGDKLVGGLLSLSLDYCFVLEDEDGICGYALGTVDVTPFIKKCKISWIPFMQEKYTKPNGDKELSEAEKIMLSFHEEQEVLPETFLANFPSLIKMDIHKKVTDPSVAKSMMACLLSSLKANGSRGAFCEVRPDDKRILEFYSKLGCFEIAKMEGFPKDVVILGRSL
As to the kind of experiment: OGA biochemical assay (inhibition of FM-GlcNAc hydrolysis, fluorescence). The conditions noted are these: for Emax: read-out: ENZYMATIC Emax (%); for IC50: read-out: ENZYMATIC hOGA, pIC50 (converted). The source says:
The assay is based on the inhibition of the hydrolysis of fluorescein mono-β-D-N-Acetyl-Glucosamine (FM-GlcNAc) (Mariappa et al. 2015, Biochem J 470:255) by the recombinant human Meningioma Expressed Antigen 5 (MGEA5), also referred to as O-GlcNAcase (OGA). The hydrolysis FM-GlcNAc (Marker Gene technologies, cat # M1485) results in the formation of B-D-N-glucosamineacetate and fluorescein. The fluorescence of the latter can be measured at excitation wavelength 485 nm and emission wavelength 538 nm. An increase in enzyme activity results in an increase in fluorescence signal. Full length OGA enzyme was purchased at OriGene (cat # TP322411). The enzyme was stored in 25 mM Tris.HCl, pH 7.3, 100 mM glycine, 10% glycerol at −20° C. Thiamet G and GlcNAcStatin were tested as reference compounds (Yuzwa et al. 2008 Nature Chemical Biology 4:483; Yuzwa et al. 2012 Nature Chemical Biology 8:393). The assay was performed in 200 mM Citrate/phosphate buffer supplemented with 0.005% Tween-20. 35.6 g Na2HPO4 2 H2O (Sigma, # C0759) were dissolved in 1 L water to obtain a 200 mM solution. 19.2 g citric acid (Merck, # 1.06580) was dissolved in 1 L water to obtain a 100 mM solution. pH of the sodium phosphate solution was adjusted with the citric acid solution to 7.2. The buffer to stop the reaction consists of a 500 mM Carbonate buffer, pH 11.0. 734 mg FM-GlcNAc were dissolved in 5.48 mL DMSO to obtain a 250 mM solution and was stored at −20° C. OGA was used at 2 nM concentration and FM-GlcNAc at a 100 uM final concentration. Dilutions were prepared in assay buffer.
50 nl of a compound dissolved in DMSO was dispensed on Black Proxiplate™ 384 Plus Assay plates (Perkin Elmer, #6008269) and 3 μl fl-OGA enzyme mix added subsequently. Plates were pre-incubated for 60 min at room temperature and then 2 μl FM-GlcNAc substrate mix added. […] Plates were briefly centrifuged for 1 min at 1000rpm and incubate at room temperature for 6 h. To stop the reaction 5 μl STOP buffer were added and plates centrifuge again 1 min at 1000 rpm.
Fluorescence was quantified in the Thermo Scientific Fluoroskan Ascent or the PerkinElmer EnVision with excitation wavelength 485 nm and emission wavelength 538 nm.
For analysis a best-fit curve is fitted by a minimum sum of squares method. From this an IC50 value and Hill coefficient was obtained. High control (no inhibitor) and low control (saturating concentrations of standard inhibitor) were used to define the minimum and maximum values.

In another test the target is T2, OGA (Homo sapiens, UniProt O60502).
T2 construct: HEK293 cells inducible for P301L mutant human Tau (isoform 2N4R) were established at Janssen; endogenous in cells; host or cells: HEK293 cells inducible for P301L mutant human Tau (2N4R)
T2 sequence (O60502 1-916): T1 sequence (O60502 1-916)
As to the kind of experiment: OGA cellular assay (ICC detection of O-GlcNAcylated proteins in HEK293 cells inducible for P301L mutant human Tau). The format is cell-based. Particulars: 6 hours incubation; for EC50: read-out: CELLULAR hOGA, pEC50 (converted). The procedure: HEK293 cells inducible for P301L mutant human Tau (isoform 2N4R) were established at Janssen. Thiamet-G was used for both plate validation (high control) and as reference compound (reference EC50 assay validation). OGA inhibition is evaluated through the immunocytochemical (ICC) detection of O-GlcNAcylated proteins by the use of a monoclonal antibody (CTD110.6; Cell Signaling, #9875) detecting O-GlcNAcylated residues as previously described (Dorfmueller et al. 2010 Chemistry & biology, 17:1250). Inhibition of OGA will result in an increase of O-GlcNAcylated protein levels resulting in an increased signal in the experiment. Cell nuclei are stained with Hoechst to give a cell culture quality control and a rough estimate of immediate compounds toxicity, if any. ICC pictures are imaged with a Perkin Elmer Opera Phenix plate microscope and quantified with the provided software Perkin Elmer Harmony 4.1.
Cells were propagated in DMEM high Glucose (Sigma, #D5796) following standard procedures. 2 days before the cell assay cells are split, counted and seeded in Poly-D-Lysine (PDL) coated 96-wells (Greiner, #655946) plate at a cell density of 12,000 cells per cm^2 (4,000 cells per well) in 100 µl of Assay Medium (Low Glucose medium is used to reduce basal levels of GlcNAcylation) (Park et al. 2014 The Journal of biological chemistry 289:13519). At the day of compound test medium from assay plates was removed and replenished with 90 μl of fresh Assay Medium. 10 μl of compounds at a 10 fold final concentration were added to the wells. Plates were centrifuged shortly before incubation in the cell incubator for 6 hours. DMSO concentration was set to 0.2%. Medium is discarded by applying vacuum. For staining of cells medium was removed and cells washed once with 100 μl D-PBS (Sigma, #D8537). From next step onwards unless other stated assay volume was always 50 μl and incubation was performed without agitation and at room temperature. Cells were fixed in 50 μl of a 4% paraformaldehyde (PFA, Alpha aesar, # 043368) PBS solution for 15 minutes at room temperature. […] Before analysis samples were washed 2 times manually for 5 minutes in ICC base buffer.
Imaging is performed using Perkin Elmer Phenix Opera using a water 20× objective and recording 9 fields per well. Intensity readout at 488 nm is used as a measure of O-GlcNAcylation level of total proteins in wells. To assess potential toxicity of compounds nuclei were counted using the Hoechst staining. IC50-values are calculated using parametric non-linear regression model fitting. As a maximum inhibition Thiamet G at a 200 uM concentration is present on each plate. In addition, a concentration response of Thiamet G is calculated on each plate.

For the compound `CCc1cc(N2CCC3(CCN(Cc4cnc(NC(C)=O)s4)C3)C2)cc(C)n1` (stereo not shown) [Product 64], in test [1], the Emax came to 101% and the IC50 is 9.12 nM. At OGA, the Emax was 62.6% and the EC50 is 251 nM.
For `Cc1cc(N2CCC3(CCN(Cc4ccc5scnc5c4)C3)C2)nc(C)n1` (stereo not shown) [Product 21], in test [1], the maximum response (Emax) was found to be 98.1% and the IC50 is 170 nM. Moreover, at OGA, the Emax was 23.6% and the EC50 was more than 1000 nM.
Turning to `CC(=O)Nc1ncc(CN2CCC3(CCN(c4cc(C)cnc4C)C3)C2)s1` (stereo not shown) [Product 50], in test [1], the maximal response (Emax) worked out at 101% and the IC50 was 25.1 nM. Moreover, at OGA, the Emax was determined as 87.8% and the EC50 was 186 nM.
Consider `CC(=O)Nc1ncc(CN2CCC3(CCN(c4cc(C)ncc4C(F)(F)F)C3)C2)s1` (stereo not shown) [Product 34], for which, in test [1], the “ENZYMATIC hOGA; pIC50” value was found to be 7.44 and the Emax turned out to be 102%. Moreover, on OGA, the Emax stood at 85.3% and the EC50 was 148 nM.
On to `Cc1cc(N2CCC3(CCN(C(C)c4ccc5c(c4)OCCO5)C3)C2)cc(C)n1` (stereo not shown) [Product 38], for which, in test [1], the Emax was 101% and the IC50 was 30.2 nM. Also, at OGA, the Emax is 68.9% and the EC50 was 389 nM.
The like results for `CCOc1cc(N2CCC3(CCN(Cc4cnc(NC(C)=O)s4)C3)C2)cc(C)n1` (stereo not shown) [Product 59] were, in that order, 100%, 3.63 nM, 84.4% and 39.8 nM.
Taken in the same sequence, the figures for `COc1cncc(N2CCC3(CCN(Cc4cnc(NC(C)=O)s4)C3)C2)c1` (stereo not shown) [Product 67] were 99.4%, 34.7 nM, 45.6% and 537 nM.
Turning to `Cc1cc(N2CCC3(CCN(C(C)c4ccc5sc(C)nc5c4)C3)C2)cc(C)n1` (stereo not shown) [Product 29], in test [1], the maximal effect (Emax) was found to be 101% and the IC50 is 18.2 nM. Besides, on OGA, the Emax came out at 74.1% and the EC50 was 380 nM.
For `CC(=O)Nc1ncc(CN2CCC3(CCN(c4cc(C)nc(C)c4)C3)C2)s1` (stereo not shown) [Product 1], in test [1], the “ENZYMATIC hOGA; pIC50” value was found to be 8.22 and the Emax amounted to 102%. Besides, on OGA, the Emax is 123% and the EC50 was 141 nM.
As for `COc1cc(N2CCC3(CCN(Cc4cnc(NC(C)=O)s4)C3)C2)cc(C)n1` (stereo not shown) [Product 58], in test [1], the Emax is 102% and the IC50 is 5.89 nM. Besides, on OGA, the Emax is 86.3% and the EC50 was 56.2 nM.
Taken in the same sequence, the figures for `CC(=O)Nc1ncc(CN2CCC3(CCN(c4cc(C)c(C)cn4)C3)C2)s1` (stereo not shown) [Product 61] were 102%, 28.2 nM, 94.6% and 117 nM.
Taken in the same sequence, the figures for `CC(=O)Nc1ncc(CN2CCC3(CCN(c4cc(C)nc(C(F)(F)F)c4)C3)C2)s1` (stereo not shown) [Product 28] were 101%, 19.1 nM, 73.4% and 380 nM.
The like results for `Cc1cc(N2CCC3(CCN(Cc4ccc5sc(C)nc5c4)C3)C2)cc(C(F)(F)F)n1` (stereo not shown) [Product 33] were, in that order, 96.2%, 69.2 nM, 6.9% and more than 1000 nM.
As for `Cc1cc(N2CCC3(CCN(Cc4ccc5nccnc5c4)C3)C2)nc(C)n1` (stereo not shown) [Product 22], in test [1], the Emax amounted to 96% and the IC50 was 275 nM. Moreover, on OGA, the Emax came to 12% and the EC50 is more than 1000 nM.
Taken in the same sequence, the figures for `Cc1cc(N2CCC3(CCN(C(C)c4ccc5scnc5c4)C3)C2)cc(C)n1` (stereo not shown) [Product 36] were 101%, 24 nM, 87.9% and 200 nM.
On to `CC(=O)Nc1ncc(CN2CCC3(CCN(c4cc(C)ncc4C)C3)C2)s1` (stereo not shown) [Product 39], for which, in test [1], the “ENZYMATIC hOGA; pIC50” value is 7.87 and the maximal effect (Emax) came to 101%. In addition, at OGA, the Emax came to 87.3% and the EC50 is 77.6 nM.
Taken in the same sequence, the figures for `CC(=O)Nc1ncc(CN2CCC3(CCN(c4cc(C)nc(C)n4)C3)C2)s1` (stereo not shown) [Product 9] were 7.88, 101%, 85.4% and 170 nM.
On to `CC(=O)Nc1ncc(CN2CCC3(CCN(c4cncc(C)c4)C3)C2)s1` (stereo not shown) [Product 68], for which, in test [1], the Emax came to 103% and the IC50 was 10.2 nM. For the same compound, on OGA, the Emax is 92.9% and the EC50 is 138 nM.
The like results for `CCc1cncc(N2CCC3(CCN(Cc4cnc(NC(C)=O)s4)C3)C2)n1` (stereo not shown) [Product 19] were, in that order, 102%, 117 nM, 56.4% and 871 nM.

Usually Emax stands for the maximal effect, on the per cent scale that the assay sets.
